The text below walks through data of patent US20170304396A1, “AQUEOUS SOLUTION FORMULATIONS OF VANCOMYCIN” (priority 2015, published 2017).

Series [1] is classed as physicochemical. Here is the method: The aim of this study was to compare effects of various ingredients on vancomycin stability in a solution in order to identify a stabilizer that can slow the degradation of vancomycin in solution. Each solution sample (coded with an F-#) was prepared by dissolving vancomycin HCl to 1% concentration, along with stabilizer added at the concentrations listed in the Table below. Each solution was adjusted to about pH 4.7 and stored at 2-8° C. and 50° C. for 2 days. The stability of vancomycin was indicated by vancomycin recovery (% over the initial concentration) after storage at a selected temperature. The concentration of vancomycin or vancomycin assay was measured using HPLC method (USP Vancomycin Assay method). The relative stability of vancomycin in each solution was expressed in vancomycin concentration or assay recovery (% over the initial concentration).
The aim of this study was to compare various amino acids, including tryptophan, on their effects on vancomycin stability in an aqueous solution. The solution samples were prepared and tested similarly to Example 2.
The solution samples were prepared and tested in a similar way as in Example 2. The test sample compositions and test results are shown in the Table below and the effects of tryptophan concentration on vancomycin stability are depicted graphically in FIG. 4.

Another series is described as follows: physchem. From the text:
As used herein, “molecular complex” means a special interaction between two molecules that are not covalently bonded. […] One of the methods to detect molecular complex formation is the phase solubility diagram which measures changes in solubility of one molecule (“substrate”) as a function of the other molecule (“complexing agent”) (T. Higuchi and J. L. Lach, J. Am. Pharm. Assoc., Sci. Ed. 43, 349, 525, 527, 1954).
In addition, this study intended to determine the stoichiometric ratio of such molecular complex formed. To obtain a phase solubility diagram of tryptophan, pre-calculated amounts of tryptophan, vancomycin and water were added into a plastic tube to form a suspension in which vancomycin was completed dissolved but tryptophan was not completed dissolved, the suspension was adjusted to pH 6.2, mixed at room temperature (RT) overnight to reach dissolution/re-crystallization equilibrium, and then filtered through a 0.2-micorn filter membrane. The filtrate was diluted and analyzed by HPLC (using the USP HPLC vancomycin assay method) to determine the concentrations of tryptophan and vancomycin. The solubility of tryptophan measured and the concentration of vancomycin added measured in each suspension sample are provided in the Table below: […]

Another series is described as follows: Solubility in water. The class given is physicochemical. Conditions: for solubility: water.
Another series deals with E. faecalis ATCC 29212. The series can be described thus: Minimum Inhibitory Concentration (CLSI). The class given is cell-based. Conditions: Example 11. From the text: (§1) Standards for this method are outlined by the Clinical and Laboratory Standards Institute (CLSI). The table below describes the vancomycin solution composition used to test antibiotic potency:
(§2) Standards for this method are outlined by the Clinical and Laboratory Standards Institute (CLSI).

For another series, the system named is S. aureus ATCC 25923. Put plainly: Minimum Inhibitory Concentration (CLSI). Conditions: Example 11. The class given is cell-based.
From the text: as §1, §2

For series [2] the following is noted: Merck Index (12th edition); cited from earlier work.

Converted amounts (≈) assume the structure as drawn. Where a name gives a salt, the structure may show the parent alone.

For `CC(=O)N[C@@H](Cc1c[nH]c2ccccc12)C(=O)O` [N-acetyl-tryptophan], the “effect of additive on vancomycin stability in solution” value in series [1] is “capable of slowing down the degradation of vancomycin in solution”.

As for `N[C@@H](Cc1c[nH]c2ccccc12)C(=O)O` [tryptophan], in “physchem” (pH 6.2), the tryptophan solubility is 2.2% and the “tryptophan solubility (estimated)” value is reported as roughly 2.5%. The solubility (as a rule, how much of the substance goes into solution per volume) in “physchem” (pH 6.2, aqueous buffer, thermodynamic from solid) was roughly 70 mM (≈ 14.3 mg/mL). The solubility in the series “Solubility in water” (without vancomycin, read-out: tryptophan solubility in water) was roughly 14 mg/mL (≈ 68.6 mM). Also, in series [1], the “effect of additive on vancomycin stability in solution” value was “capable of slowing down the degradation of vancomycin in solution”, the “effect of amino acid on vancomycin stability in solution” value is given as “capable of slowing down the degradation of vancomycin” and the “effect of tryptophan concentration on vancomycin stability in solution” value is given as “improves vancomycin stability in a concentration-dependent fashion”. In addition, in the series with E. faecalis ATCC 29212, the “effect of addition of tryptophan on the MIC of vancomycin” value is listed as “does not affect the MIC of vancomycin”. In addition, in the series on S. aureus ATCC 25923, the “effect of addition of tryptophan on the MIC of vancomycin” value is “does not affect the MIC of vancomycin”.

`CN[C@H](CC(C)C)C(=O)N[C@H]1C(=O)N[C@@H](CC(N)=O)C(=O)N[C@H]2C(=O)N[C@H]3C(=O)N[C@H](C(=O)N[C@H](C(=O)O)c4cc(O)cc(O)c4-c4cc3ccc4O)[C@H](O)c3ccc(c(Cl)c3)Oc3cc2cc(c3O[C@@H]2O[C@H](CO)[C@@H](O)[C@H](O)[C@H]2O[C@H]2C[C@](C)(N)[C@H](O)[C@H](C)O2)Oc2ccc(cc2Cl)[C@H]1O` [vancomycin hydrochloride]: in series [2], the “solubility of vancomycin hydrochloride in water” value is greater than 10 % w/v.

For the molecule `CN[C@H](CC(C)C)C(=O)N[C@H]1C(=O)N[C@@H](CC(N)=O)C(=O)N[C@H]2C(=O)N[C@H]3C(=O)N[C@H](C(=O)N[C@H](C(=O)O)c4cc(O)cc(O)c4-c4cc3ccc4O)[C@H](O)c3ccc(c(Cl)c3)Oc3cc2cc(c3O[C@@H]2O[C@H](CO)[C@@H](O)[C@H](O)[C@H]2O[C@H]2C[C@](C)(N)[C@H](O)[C@H](C)O2)Oc2ccc(cc2Cl)[C@H]1O` [vancomycin], in “Solubility in water”, the “vancomycin solubility limit in water” value was “about 12 % w/v”. Moreover, the solubility in “Solubility in water” (read-out: vancomycin solubility limit in water) is roughly 120 mg/mL (≈ 82.8 mM).
